Test results reported in patent publication US6723837B1, “Nucleic acid molecule and encoded protein associated with sterol synthesis and metabolism” (Monsanto Technology LLC, priority 1999, dated 2004).

Test system: wild type yeast LPY9
Assay: RNA abundance on yeast ORF array after ketoconazole treatment vs control without ketoconazole
Assay type: cell-based
Conditions: LPY9, 2 hr, vs untreated LPY9
Procedure: The yeast strain LPY9 (MATa, leu2, Ura3, his3) is grown overnight and inoculated into SD+ hul (histidine, uracil, leucine) media. Aliquots of the culture are treated with ketoconazole (an inhibitor of C-14α demethylase (P45014DM) enzyme) at 10 ug/ml, 50 ug/ml, and 100 ug/ml, corresponding to 10 ppm, 50 ppm, and 100 ppm, respectively. A sample of each is collected at 2, 4, and 6 hours after treatment. Control samples treated with DMSO (dimethyl sulfoxide-solvent for ketoconazole) but not with ketoconazole are also collected. Total RNA from each sample is collected by conventional methods, such as a Zirconium/Silica bead binding and extraction method. The sequence content of each sample is analyzed and compared by hybridizing each of them to a number of yeast ORF sequences immobilized on a Nylon membrane in an array format.
Table 2, below, lists the RNAs in each sample whose abundance is effected by ketoconazole treatment or whose abundance differs between wild type and the double mutant strain. The table also lists the corresponding gene or sequence identifier for those RNAs. The RNAs are ranked by the ratio of either ketocanozole vs. control or mutant vs. control, using the ratio of 50 ppm ketocanozole/control as a basis for comparison.

CC(=O)N1CCN(c2ccc(OCC3COC(Cn4ccnc4)(c4ccc(Cl)cc4Cl)O3)cc2)CC1 (centres unmarked) [ketoconazole]
K-50/CK expression level ratio: YAL001C (TFC3) (50 micro gram/ml): 0.4743 | K-50/CK expression level ratio: YAL013W (DEP1) (50 micro gram/ml): 5.546 | K-50/CK expression level ratio: YAL048C (50 micro gram/ml): 2.138 | K-50/CK expression level ratio: YAR044W (OSH1) (50 micro gram/ml): 3.625 | K-50/CK expression level ratio: YBL005W (PDR3) (50 micro gram/ml): 4.145 | K-50/CK expression level ratio: YBL008W (HIR1) (50 micro gram/ml): 2.828 | K-50/CK expression level ratio: YBR119W (MUD1) (50 micro gram/ml): 2.405 | K-50/CK expression level ratio: YBR289W (SNF5) (50 micro gram/ml): 2.688 | K-50/CK expression level ratio: YCL037C (SRO9) (50 micro gram/ml): 2.786 | K-50/CK expression level ratio: YCR048W (ARE1) (50 micro gram/ml): 6.104 | K-50/CK expression level ratio: YCR084C (TUP1) (50 micro gram/ml): 2.922 | K-50/CK expression level ratio: YDL088C (ASM4) (50 micro gram/ml): 4.176 | K-50/CK expression level ratio: YDR052C (DBF4) (50 micro gram/ml): 2.404 | K-50/CK expression level ratio: YDR088C (SLU7) (50 micro gram/ml): 2.734 | K-50/CK expression level ratio: YDR211W (GCD6) (50 micro gram/ml): 2.484 | K-50/CK expression level ratio: YDR213W (50 micro gram/ml): 32.14 | K-50/CK expression level ratio: YDR253C (MET32) (50 micro gram/ml): 0.3397 | K-50/CK expression level ratio: YDR264C (AKR1) (50 micro gram/ml): 2.198 | K-50/CK expression level ratio: YDR389W (SAC7) (50 micro gram/ml): 4.561 | K-50/CK expression level ratio: YDR422C (SIP1) (50 micro gram/ml): 2.187 | K-50/CK expression level ratio: YFL054C (50 micro gram/ml): 0.4794 | K-50/CK expression level ratio: YFR009W (GCN20) (50 micro gram/ml): 2.486 | K-50/CK expression level ratio: YFR034C (PHO4) (50 micro gram/ml): 11.22 | K-50/CK expression level ratio: YGL001C (50 micro gram/ml): 2.821 | K-50/CK expression level ratio: YGL014W (50 micro gram/ml): 3.229 | K-50/CK expression level ratio: YGL071W (RCS1) (50 micro gram/ml): 3.696 | K-50/CK expression level ratio: YGL112C (TAF60) (50 micro gram/ml): 2.077 | K-50/CK expression level ratio: YGL192W (IME4) (50 micro gram/ml): 3.17 | K-50/CK expression level ratio: YGR177C (ATF2) (50 micro gram/ml): 11.83 | K-50/CK expression level ratio: YGR270W (YTA7) (50 micro gram/ml): 2.406 | K-50/CK expression level ratio: YHL027W (RIM101) (50 micro gram/ml): 2.103 | K-50/CK expression level ratio: YIL084C (SDS3) (50 micro gram/ml): 5.543 | K-50/CK expression level ratio: YIR017C (MET28) (50 micro gram/ml): 0.3775 | K-50/CK expression level ratio: YJL127C (SPT10) (50 micro gram/ml): 7.839 | K-50/CK expression level ratio: YJR017C (ESS1) (50 micro gram/ml): 3.559 | K-50/CK expression level ratio: YJR019C (TES1) (50 micro gram/ml): 2.83 | K-50/CK expression level ratio: YKR034W (DAL80) (50 micro gram/ml): 5.044 | K-50/CK expression level ratio: YLR098C (CHA4) (50 micro gram/ml): 4.756 | K-50/CK expression level ratio: YLR120C (YAP3) (50 micro gram/ml): 3.623 | K-50/CK expression level ratio: YLR153C (ACS2) (50 micro gram/ml): 3.379 | K-50/CK expression level ratio: YLR249W (YEF3) (50 micro gram/ml): 3.145 | K-50/CK expression level ratio: YMR019W (STB4) (50 micro gram/ml): 3.441 | K-50/CK expression level ratio: YMR037C (MSN2) (50 micro gram/ml): 6.424 | K-50/CK expression level ratio: YMR047C (NUP116) (50 micro gram/ml): 3.17 | K-50/CK expression level ratio: YMR080C (NAM7) (50 micro gram/ml): 2.183 | K-50/CK expression level ratio: YMR146C (TIF34) (50 micro gram/ml): 0.2248 | K-50/CK expression level ratio: YNR019W (ARE2) (50 micro gram/ml): 1.791 | K-50/CK expression level ratio: YOL067C (RTG1) (50 micro gram/ml): 10.03 | K-50/CK expression level ratio: YOR127W (RGA1) (50 micro gram/ml): 2.532 | K-50/CK expression level ratio: YOR237W (HES1) (50 micro gram/ml): 1418 | K-50/CK expression level ratio: YOR337W (TEA1) (50 micro gram/ml): 2.979 | K-50/CK expression level ratio: YPL028W (ERG10) (50 micro gram/ml): 2.019 | K-50/CK expression level ratio: YPL119C (DBP1) (50 micro gram/ml): 3.246 | K-50/CK expression level ratio: YPL226W (50 micro gram/ml): 2.889 | K-50/CK expression level ratio: YPL237W (SUI3) (50 micro gram/ml): 2.563 | K-50/CK expression level ratio: YPR080W (TEF1) (50 micro gram/ml): 2.212 | K-100/CK expression level ratio: YAL001C (TFC3) (100 micro gram/ml): 1.192 | K-100/CK expression level ratio: YAL013W (DEP1) (100 micro gram/ml): 6.425 | K-100/CK expression level ratio: YAL048C (100 micro gram/ml): 4.221 | K-100/CK expression level ratio: YAR044W (OSH1) (100 micro gram/ml): 3.884 | K-100/CK expression level ratio: YBL005W (PDR3) (100 micro gram/ml): 6.083 | K-100/CK expression level ratio: YBL008W (HIR1) (100 micro gram/ml): 2.887 | K-100/CK expression level ratio: YBR119W (MUD1) (100 micro gram/ml): 1.399 | K-100/CK expression level ratio: YBR289W (SNF5) (100 micro gram/ml): 3.039 | K-100/CK expression level ratio: YCL037C (SRO9) (100 micro gram/ml): 2.394 | K-100/CK expression level ratio: YCR048W (ARE1) (100 micro gram/ml): 10.53 | K-100/CK expression level ratio: YCR084C (TUP1) (100 micro gram/ml): 3.272 | K-100/CK expression level ratio: YDL088C (ASM4) (100 micro gram/ml): 3.321 | K-100/CK expression level ratio: YDR052C (DBF4) (100 micro gram/ml): 1.583 | K-100/CK expression level ratio: YDR088C (SLU7) (100 micro gram/ml): 2.688 | K-100/CK expression level ratio: YDR211W (GCD6) (100 micro gram/ml): 1.824 | K-100/CK expression level ratio: YDR213W (100 micro gram/ml): 58.36 | K-100/CK expression level ratio: YDR253C (MET32) (100 micro gram/ml): 0.3279 | K-100/CK expression level ratio: YDR264C (AKR1) (100 micro gram/ml): 2.752 | K-100/CK expression level ratio: YDR389W (SAC7) (100 micro gram/ml): 4.314 | K-100/CK expression level ratio: YDR422C (SIP1) (100 micro gram/ml): 2.084 | K-100/CK expression level ratio: YFL054C (100 micro gram/ml): 0.6137 | K-100/CK expression level ratio: YFR009W (GCN20) (100 micro gram/ml): 2.161 | K-100/CK expression level ratio: YFR034C (PHO4) (100 micro gram/ml): 20.84 | K-100/CK expression level ratio: YGL001C (100 micro gram/ml): 1.985 | K-100/CK expression level ratio: YGL014W (100 micro gram/ml): 3.638 | K-100/CK expression level ratio: YGL071W (RCS1) (100 micro gram/ml): 4.531 | K-100/CK expression level ratio: YGL112C (TAF60) (100 micro gram/ml): 2.189 | K-100/CK expression level ratio: YGL192W (IME4) (100 micro gram/ml): 6.478 | K-100/CK expression level ratio: YGR177C (ATF2) (100 micro gram/ml): 12.56 | K-100/CK expression level ratio: YGR270W (YTA7) (100 micro gram/ml): 1.946 | K-100/CK expression level ratio: YHL027W (RIM101) (100 micro gram/ml): 2.593 | K-100/CK expression level ratio: YIL084C (SDS3) (100 micro gram/ml): 6.907 | K-100/CK expression level ratio: YIR017C (MET28) (100 micro gram/ml): 0.3009 | K-100/CK expression level ratio: YJL127C (SPT10) (100 micro gram/ml): 10.1 | K-100/CK expression level ratio: YJR017C (ESS1) (100 micro gram/ml): 3.221 | K-100/CK expression level ratio: YJR019C (TES1) (100 micro gram/ml): 2.072 | K-100/CK expression level ratio: YKR034W (DAL80) (100 micro gram/ml): 7.284 | K-100/CK expression level ratio: YLR098C (CHA4) (100 micro gram/ml): 5.587 | K-100/CK expression level ratio: YLR120C (YAP3) (100 micro gram/ml): 4.43 | K-100/CK expression level ratio: YLR153C (ACS2) (100 micro gram/ml): 3.129 | K-100/CK expression level ratio: YLR249W (YEF3) (100 micro gram/ml): 2.632 | K-100/CK expression level ratio: YMR019W (STB4) (100 micro gram/ml): 3.398 | K-100/CK expression level ratio: YMR037C (MSN2) (100 micro gram/ml): 7.661 | K-100/CK expression level ratio: YMR047C (NUP116) (100 micro gram/ml): 4.774 | K-100/CK expression level ratio: YMR080C (NAM7) (100 micro gram/ml): 2.171 | K-100/CK expression level ratio: YMR146C (TIF34) (100 micro gram/ml): 0.7194 | K-100/CK expression level ratio: YNR019W (ARE2) (100 micro gram/ml): 2.854 | K-100/CK expression level ratio: YOL067C (RTG1) (100 micro gram/ml): 27.37 | K-100/CK expression level ratio: YOR127W (RGA1) (100 micro gram/ml): 2.57 | K-100/CK expression level ratio: YOR139C (SFL1) (100 micro gram/ml): 11.76 | K-100/CK expression level ratio: YOR237W (HES1) (100 micro gram/ml): 1358 | K-100/CK expression level ratio: YOR337W (TEA1) (100 micro gram/ml): 4.823 | K-100/CK expression level ratio: YPL028W (ERG10) (100 micro gram/ml): 1.699 | K-100/CK expression level ratio: YPL119C (DBP1) (100 micro gram/ml): 2.197 | K-100/CK expression level ratio: YPL226W (100 micro gram/ml): 2.556 | K-100/CK expression level ratio: YPL237W (SUI3) (100 micro gram/ml): 2.548 | K-100/CK expression level ratio: YPR080W (TEF1) (100 micro gram/ml): 1.859
